Results: paper PMC7809749, “Tumor vasculature-targeted ^10B delivery by an Annexin A1-binding peptide boosts effects of boron neutron capture therapy” (BMC Cancer, 2021)

How the values were obtained:
[1] = test system: MBT2 bladder tumor-bearing C3H/He mice; test: ^10B concentration in tumors and normal organs by prompt gamma-ray analysis; assay type: in vivo, mouse; settings: for Intratumoral ^10B concentration: IF7 conjugates 7 mg/kg, fructose-^10BPA 0.791 mg/kg, ^10BSH 0.868 mg/kg, MBT2 tumor; for Intratumoral ^10B concentration / ^10B tumor/blood (T/B) ratio: mean ± SD; for ^10B tumor/blood (T/B) ratio: same doses; for Tumor/blood (T/B) ratio, range: by 40 min after injection (range over 5-40 min); for Intratumoral concentration reached: ultralow dose 7 mg/kg iv, MBT2 tumor-bearing mice, discussion summary
Procedure: MBT2 cells (1 × 10^6 cells per mouse) plus 50 μl Matrigel (Corning Inc., NY, USA) were injected subcutaneously using a 27-gauge needle into the right thighs of 8-week-old female C3H/He mice under anesthesia with 2% isoflurane inhalation. The day of injection was defined as day 0. At 4 weeks after MBT2 cells injection, when MBT2 tumors were palpable, mice were randomly divided into four groups of 16 mice each and injected intravenously with: 1) fructose-^10BPA ((0.791 mg/kg), 2) IF7C(^10BPA)RR (7 mg/kg), 3) ^10BSH 0.868 mg/kg), or 4) IF7K(^10BSH)RR (7 mg/kg). Within 5, 10, 20, and 40 min of injection, four mice at each time point were sacrificed by cervical dislocation under anesthesia with 2% isoflurane inhalation. From each mouse, the tumor, brain, lung, heart, liver, kidney, bladder, stomach, intestine, spleen, skin, muscles, and blood were collected in a Teflon tube for ^10B measurement. ^10B concentrations in tissues were measured by prompt gamma-ray spectrometry using a thermal neutron guide tube installed at the Institute for Integrated Radiation and Nuclear Science, Kyoto University (KURNS).

[2] = test system: murine MBT2 bladder tumor; test: Nuclear reactor-based BNCT of MBT2 bladder tumor-bearing mice; assay type: in vivo, mouse; settings: compound-mediated BNCT: 10 mg/kg iv 40 min before neutron irradiation (60 min, 1 MW); MBT2, n = 3; mean ± SD
Procedure: MBT2 cells were injected as described above into the right thighs of 8-week-old female C3H/He mice, and the day of injection defined as day 0. Four weeks later, when MBT2 tumors were palpable, mice were randomly divided into six groups of 3 mice each: 1) untreated control, 2) IF7C(^10BPA)RR, 3) IF7K(^10BSH)RR, 4) neutron-irradiated controls, 5) IF7C(^10BPA)RR-mediated BNCT, and 6) IF7K(^10BSH)RR-mediated BNCT. In Groups 4, 5, and 6, tumors in right thighs were subjected to neutron beam irradiation at the heavy water facility of KURNS Research Reactor for 60 min at a power of 1 MW. Each mouse was held within an acrylic holder during neutron irradiation, and a LiF plate (50 mm thick) was used to shield the body from thermal neutrons, while exposing the tumor. Neutron fluences were measured by radioactivation of gold foils (3 mm diameter; 0.05 mm thick) on surface of both sides of the tumors. Since thermal neutrons were rapidly attenuated in the tumor, the average thermal neutron fluences of both sides were adopted as the fluence irradiated to the tumors. In this study, tumors were irradiated by 1.9 × 10^12 thermal neutrons/cm^2. Thermoluminescent dosimeters for γ-ray dosimetry were attached to tumor surfaces. […] Tumor size was measured using calipers, and tumor volume (V) was calculated as: V = ab^2/2, where a and b are the major and minor axes, respectively. […]

[3] = test system: human YTS-1 bladder tumor xenograft; test: Cyclotron accelerator-based BNCT of human YTS-1 xenograft mice; assay type: in vivo; settings: mean ± SD; for Tumor volume at 4 weeks after start of first BNCT: compound injection without neutron irradiation, YTS-1 xenograft, nude mice, n = 8; for Tumor volume at 4 weeks: compound-mediated BNCT, 20 mg/kg iv 40 min before irradiation, two treatments one week apart, YTS-1, n = 8
Procedure: YTS-1 cells (2 × 10^6 cells per mouse) plus 50 μl Matrigel (Corning Inc.) were injected subcutaneously using a 27-gauge needle into the right thighs of 8-week-old female BALB/c nu/nu mice under anesthesia with 2% isoflurane inhalation. The day of injection was defined as day 0. One week later, when YTS-1 xenografts were palpable, mice were randomly divided into six groups of 8 mice each: 1) untreated control, 2) […], 4) neutron-irradiated controls, 5) IF7C(^10BPA)RR-mediated BNCT, and 6) IF7K(^10BSH)RR-mediated BNCT. In Groups 4, 5, and 6, tumors in thighs were subjected to neutron beam irradiation at the cyclotron-typed accelerator (Sumitomo Heavy Industries Ltd.) in the Aomori Prefecture Quantum Science Center for 60 min at a power of […] at 20 MeV. Radiation of mice was performed as described above. The average of the γ-ray dose was 0.23 Gy. Groups 5 and 6, IF7C(^10BPA)RR or IF7K(^10BSH)RR was administered intravenously 40 min before irradiation at a dose of 20 mg/kg. One week after the first BNCT, the second was administered using both the same method and irradiation method. The tumor size and volume was calculated as above. Four weeks after the first BNCT, all mice were sacrificed by cervical dislocation under anesthesia with 2% isoflurane inhalation, and tumors were weighed and prepared for immunohistochemical analysis.

[4] = test system: human YTS-1 xenograft tumors; test: Immunohistochemistry of YTS-1 xenografts (HE, CD8α, CD31, Ki-67, Anxa1); assay type: in vivo; settings: 3 weeks after second BNCT; for Number of CD8-positive lymphocytes per tumor area / Ki-67 proliferation index: mean ± SD; for Anxa 1 expression vs untreated, compound-only and neutron-irradiated controls: IHC
Procedure: BNCT-treated YTS-1 tumors were collected as described above, fixed in 20% formalin solution and embedded in paraffin. Tissue sections 4 μm thick were mounted on silane-coated glass slides and air-dried for 1 h. Deparaffinized tissue sections underwent heat-induced epitope retrieval using a Histofine antigen retrieval reagent (pH 6.0) (Nichirei Biosciences Inc. Tokyo, Japan) and were then incubated with anti-human Ki-67 antigen (clone MIB-1, 1:2000 dilution) or mouse anti-Anxa1 monoclonal antibody (clone MC16, 1:100 dilution) in phosphate-buffered saline (PBS) containing 5% bovine serum albumin (BSA) at 4 °C overnight. Other sections were treated with heat-induced epitope retrieval with Histofine antigen retrieval reagent (pH 9.0) (Nichirei Biosciences Inc.) and then incubated with rabbit anti-mouse CD8α (antibody (EPR21769, 1:2000 dilution) or anti-mouse CD31 (EPR17259, 1:2000 dilution) in PBS containing 5% BSA at 4 °C overnight. The Envision/HRP rabbit mouse kit was used for antibody detection (Agilent Technologies Japan., Tokyo, Japan). Nuclear counterstaining was performed by incubating sections with hematoxylin solution (Agilent Technologies Japan) for 2 min at room temperature. Eosin alcohol solution (Fujifilm Wako Pure Chemical Corporation) was used to perform HE staining, according to the manufacturer’s instruction. Images (10× objective) were captured using a Keyence BZ-9000 fluorescence microscope (Keyence, Tokyo, Japan) and BZ-II analyzer Ver 2.2 (Keyence). The white balance was adjusted for each specimen.
Six complete and non-overlapping tumor regions of interest (ROI) were selected from each case and saved as .tif files. The number of diaminobenzidine (DAB)-stained nuclei was determined in the ROI using color deconvolution and the particle analysis plug-in of the Fiji platform (ImageJ distribution, http://fiji.sc/Fiji). The mean number of CD8-positive lymphocytes in all six fields was used for statistical analysis. The number of diaminobenzidine (DAB)-stained blood vessels was counted in a ROI using the color deconvolution plug-in of the Fiji platform (ImageJ distribution, http://fiji.sc/Fiji). The mean number of CD31-positive blood vessels in all six fields was used for statistical analysis.
As above, six complete and non-overlapping tumor regions of interest (ROI) were selected and saved as .tif files, and diaminobenzidine (DAB)- and hematoxylin-stained nuclei were counted. Ki-67-positive nuclei were included in the count, regardless of staining intensity, in line with recommendations of the International Ki-67 in Breast Cancer Working Group. The number of DAB-stained nuclei was divided by the sum of DAB- and hematoxylin-stained nuclei, and values were expressed as a percentage. The mean percentage of Ki-67-positive cells in all six field was used for statistical analysis.

[5] = cited from earlier work
Procedure: To facilitate esterase-aided ^10BPA release following delivery to a tumor, we conjugated IF7C to ^10BPA via an ester bond with a propanolamine linker. Following analysis of 584 mg of IF7C(^10BPA)RR, we determined its purity to be 99.5% (Fig. S1A). By contrast, to design a conjugate to be internalized by tumor cells, we conjugated IF7K to ^10BSH directly through an uncleavable linker, N-(6-maleimidocaproyloxy) sulfosuccinimide (Sulfo-EMCS). We synthesized a total of 411 mg IF7K(^10BSH)RR, and determined its purity to be 98.8% (Fig. S1B).

tumor = settings: after intravenous injection; cited from earlier work
[6] = compound injection without neutron irradiation

Substance: IFLLWQRC(EMCS-^10BPA)RR [IF7C(^10BPA)RR]
- Intratumoral ^10B concentration ([1]; 5 min after iv injection): 9.3 ± 6.9 ppm
- ^10B tumor/blood (T/B) ratio ([1]; 5 min after iv injection): 3.48 ± 3.49
- Intratumoral ^10B concentration ([1]; 10 min after iv injection): 4.6 ± 0.8 ppm
- ^10B tumor/blood (T/B) ratio ([1]; 10 min after iv injection): 2.41 ± 0.27
- Intratumoral ^10B concentration ([1]; 20 min after iv injection): 19.9 ± 20.4 ppm
- ^10B tumor/blood (T/B) ratio ([1]; 20 min after iv injection): 13.54 ± 19.68
- Intratumoral ^10B concentration ([1]; 40 min after iv injection): 4.7 ± 0.5 ppm
- ^10B tumor/blood (T/B) ratio ([1]; 40 min after iv injection): 2.15 ± 0.50
- Tumor/blood (T/B) ratio, range [1]: 2.15–13.54
- Intratumoral concentration reached [1]: 20 ppm
- Tumor volume 3 weeks after BNCT [2]: 2.90 ± 0.49 mm^3
- Tumor volume at 4 weeks after start of first BNCT [3]: 965 ± 844 mm^3
- Tumor volume at 4 weeks [3]: 123 ± 114 mm^3
- Number of CD8-positive lymphocytes per tumor area [4, 6]: 709 ± 328 n/mm^2
- Histology (HE and CD8α staining) ([4]; compound-mediated BNCT): tissue necrosis with infiltration of CD8α-positive lymphocytes
- Anxa 1 expression vs untreated, compound-only and neutron-irradiated controls ([4]; compound-mediated BNCT): significantly higher
- Ki-67 proliferation index ([4]; compound-mediated BNCT): 10.82 ± 6.31%
- Number of CD8-positive lymphocytes per tumor area ([4]; compound-mediated BNCT): 4351 ± 1318 n/mm^2

Substance: p-Boronophenylalanine [^10BPA, reference compound]
- Intratumoral ^10B concentration ([1]; 5 min after iv injection): 2.5 ± 4.4 ppm
- ^10B tumor/blood (T/B) ratio ([1]; 5 min after iv injection): 0.77 ± 1.33
- Intratumoral ^10B concentration ([1]; 10 min after iv injection): 2.6 ± 3.1 ppm
- ^10B tumor/blood (T/B) ratio ([1]; 10 min after iv injection): 0.87 ± 0.88
- Intratumoral ^10B concentration ([1]; 20 min after iv injection): 0.0 ± 0.0 ppm
- ^10B tumor/blood (T/B) ratio ([1]; 20 min after iv injection): 0.0 ± 0.0
- Intratumoral ^10B concentration ([1]; 40 min after iv injection): 5.4 ± 5.0 ppm
- ^10B tumor/blood (T/B) ratio ([1]; 40 min after iv injection): 3.16 ± 3.35
- Tumor/blood (T/B) ratio, range [1]: 0.00–3.16

Substance: IFLLWQRK(EMCS-^10BSH)RR [IF7K(^10BSH)RR]
- Intratumoral ^10B concentration ([1]; 5 min after iv injection): 17.8 ± 11.1 ppm
- ^10B tumor/blood (T/B) ratio ([1]; 5 min after iv injection): 7.61 ± 8.81
- Intratumoral ^10B concentration ([1]; 10 min after iv injection): 27.0 ± 15.3 ppm
- ^10B tumor/blood (T/B) ratio ([1]; 10 min after iv injection): 10.92 ± 9.89
- Intratumoral ^10B concentration ([1]; 20 min after iv injection): 16.2 ± 16.3 ppm
- ^10B tumor/blood (T/B) ratio ([1]; 20 min after iv injection): 5.89 ± 3.57
- Intratumoral ^10B concentration ([1]; 40 min after iv injection): 15.4 ± 11.2 ppm
- ^10B tumor/blood (T/B) ratio ([1]; 40 min after iv injection): 6.28 ± 7.45
- Tumor/blood (T/B) ratio, range [1]: 5.89–10.92
- Intratumoral concentration reached [1]: 25 ppm
- Tumor volume 3 weeks after BNCT [2]: 3111 ± 1769 mm^3
- Tumor volume at 4 weeks after start of first BNCT [3]: 1511 ± 921 mm^3
- Tumor volume at 4 weeks [3]: 69 ± 79 mm^3
- Number of CD8-positive lymphocytes per tumor area [4, 6]: 860 ± 262 n/mm^2
- Histology (HE and CD8α staining) ([4]; compound-mediated BNCT): tissue necrosis with infiltration of CD8α-positive lymphocytes
- Anxa 1 expression vs untreated, compound-only and neutron-irradiated controls ([4]; compound-mediated BNCT): significantly higher
- Ki-67 proliferation index ([4]; compound-mediated BNCT): 9.73 ± 8.39%
- Number of CD8-positive lymphocytes per tumor area ([4]; compound-mediated BNCT): 4498 ± 890 n/mm^2

Substance: borocaptate sodium [^10BSH, reference compound]
- Intratumoral ^10B concentration ([1]; 5 min after iv injection): 1.6 ± 1.4 ppm
- ^10B tumor/blood (T/B) ratio ([1]; 5 min after iv injection): 0.41 ± 0.72
- Intratumoral ^10B concentration ([1]; 10 min after iv injection): 7.5 ± 8.7 ppm
- ^10B tumor/blood (T/B) ratio ([1]; 10 min after iv injection): 2.46 ± 2.28
- Intratumoral ^10B concentration ([1]; 20 min after iv injection): 17.1 ± 12.8 ppm
- ^10B tumor/blood (T/B) ratio ([1]; 20 min after iv injection): 8.72 ± 4.98
- Intratumoral ^10B concentration ([1]; 40 min after iv injection): 1.7 ± 0.3 ppm
- ^10B tumor/blood (T/B) ratio ([1]; 40 min after iv injection): 1.71 ± 1.14
- Tumor/blood (T/B) ratio, range [1]: 0.41–8.72

Substance: IFLLWQR [IF7]
- Solubility in aqueous solution [5]: poorly soluble
- Time for IF7 to target a tumor (tumor): 9 min
